≈ marks a conversion by molar mass, not a printed value. Where “and” joins values, the source holds several entries; their conditions need not be identical. Identical values can stand only once.
Experiment: Solubility of the compound in organic solvents and eluents
Type: physicochemical
Details: for Solubility (mg/mL) at 25°C / Solubility: 25°C
[1] = eluent hexane and dichloromethane at 6:4 (volume ratio)

Compound	Solubility (mg/mL) at 25°C (Dichloromethane)	Solubility (mg/mL) at 25°C (Ethyl acetate)	Solubility (mg/mL) at 25°C (Toluene)	solubility in the used eluent [1]	Solubility (Example 4 eluent Hexane/ethyl acetate (volume ratio: 8:1))	Solubility (Example 5 eluent Hexane/toluene (volume ratio: 2:1))	Solubility (Example 6 eluent Hexane/THF (volume ratio: 8:1))	Solubility (Example 7 eluent Hexane/acetone (volume ratio: 8:1))	solubility in the used eluent (eluent hexane and ethyl acetate at 8:1 (volume ratio))	solubility in the used eluent (eluent hexane and toluene at 3:2 (volume ratio))
c1ccc(N(c2ccccc2)c2ccc3[nH]c4ccc(N(c5ccccc5)c5ccccc5)cc4c3c2)cc1 [DACT-II precursor, N,N,N',N'-tetraphenyl-9H-carbazole-3,6-diamine]	30 mg/mL (≈ 59.8 mM)	4 mg/mL (≈ 7.97 mM)	10 mg/mL (≈ 19.9 mM)	3 mg/mL	–	–	–	–	–	–
c1ccc(-c2nc(-c3ccccc3)nc(-c3ccc(-n4c5ccc(N(c6ccccc6)c6ccccc6)cc5c5cc(N(c6ccccc6)c6ccccc6)ccc54)cc3)n2)cc1 [DACT-II, 9-[4-(4,6-diphenyl-1,3,5-triazin-2-yl)phenyl]-N,N,N',N'-tetraphenyl-9H-carbazole-3,6-diamine]	100 mg/mL (≈ 124 mM)	6 mg/mL (≈ 7.42 mM)	30 mg/mL (≈ 37.1 mM)	3 mg/mL	<1.1 mg/mL	<5.9 mg/mL	<2.1 mg/mL	<0.3 mg/mL	1 mg/mL and 1.1 mg/mL	5 mg/mL

From patent publication EP4741818A1, “COMPOUND TREATMENT METHOD, METHOD FOR PRODUCING COMPOUND OR REACTION PRODUCT OF SAME, SYSTEM FOR TREATING COMPOUND, AND REPLACEMENT TREATMENT COLUMN” (Flugelz Co., Ltd., priority 2023, dated 2025)
